Key:
C57BL/KsJ-db/db mice = experiment: Efficacy in genetic models: blood sugar and triglyceride lowering in db/db mice; format: in vivo, mouse
Excerpt: Mutation in colonies of laboratory animals and different sensitivities to dietary regimens have made the development of animal models with non-insulin dependent diabetes and hyperlipidemia associated with obesity and insulin resistance possible. Genetic models such as db/db and ob/ob (Diabetes, (1982) 31(1): 1-6) mice and zucker fa/fa rats have been developed by the various laboratories for understanding the pathophysiology of disease and testing the efficacy of new antidiabetic compounds (Diabetes, (1983) 32: 830-838; Annu. Rep. Sankyo Res. Lab. (1994). 46: 1-57). The homozygous animals, C57 BL/KsJ-db/db mice developed by Jackson Laboratory, US, are obese, hyperglycemic, hyperinsulinemic and insulin resistant (J. Clin. Invest., (1990) 85: 962-967), whereas heterozygous are lean and normoglycemic. In db/db model, mouse progressively develops insulinopenia with age, a feature commonly observed in late stages of human type II diabetes when blood sugar levels are insufficiently controlled. The state of pancreas and its course vary according to the models. Since this model resembles that of type II diabetes mellitus, the compounds of the present invention were tested for blood sugar and triglycerides lowering activities.
Male C57BL/KsJ-db/db mice of 8 to 14 weeks age, having body weight range of 35 to 60 grams, bred at Dr. Reddy's Research Foundation (DRF) animal house, were used in the experiment The mice were provided with standard feed (National Institute of Nutrition (NIN), Hyderabad, India) and acidified water, ad libitum. The animals having more tan 350 mg/dl blood sugar were used for testing. The number of animals in each group was 4.
Test compounds were suspended on 0.25% carboxymethyl cellulose and administered to test group at a dose of 0.1 mg to 30 mg/kg through oral gavage daily for 6 days. The control group received vehicle (dose 10 ml/kg). On 6th day the blood samples were collected one hour after administration of test compounds/vehicle for assessing the biological activity.
The random blood sugar and triglyceride levels were measured by collecting blood (100 μl) through orbital sinus, using heparinised capillary in tubes containing EDTA which was centrifuged to obtain plasma. The plasma glucose and triglyceride levels were measured spectrometrically, by glucose oxidase and glycerol-3-PO4 oxidase/peroxidase enzyme (Dr. Reddy's Lab. Diagnostic Division Kits, Hyderabad, India) methods respectively.
The blood sugar and triglycerides lowering activities of the test compound was calculated according to the formula.
(§1) • 1. Percent reduction in Blood sugar/triglycerides/total cholesterol were calculated according to the formula: [formula] • OC=Zero day control group value • OT=Zero day treated group value • TC=Test day control group value • TT=Test day treated group value • 2. LDL and VLDL cholesterol levels were calculated according to the formula: [formula] [formula]

hPPARγ1 = biological target: T1, hPPARγ1 (Homo sapiens, UniProt P37231); experiment: Determination of hPPARγ activity (GAL4 luciferase reporter transactivation); format: cell-based; conditions: compound at 1 μM; luciferase activity in transfected HEK-293 cells
T1 construct: expressed in transfected cells; host or cells: HEK-293
T1 sequence (P37231 238-503 limits assumed): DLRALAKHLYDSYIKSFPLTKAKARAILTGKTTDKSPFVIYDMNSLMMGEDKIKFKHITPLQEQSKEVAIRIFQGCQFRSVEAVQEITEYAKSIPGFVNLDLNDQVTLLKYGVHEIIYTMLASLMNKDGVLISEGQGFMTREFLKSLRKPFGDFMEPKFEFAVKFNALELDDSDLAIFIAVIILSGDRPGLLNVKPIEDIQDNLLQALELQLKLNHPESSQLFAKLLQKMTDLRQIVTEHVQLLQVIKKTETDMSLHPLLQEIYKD
Protocol: Ligand binding domain of hPPARγ1 was fused to DNA binding domain of Yeast transcription factor GAL4 in eucaryotic expression vector. Using lipofectamine (Gibco BRL, USA) as transfecting reagent HEK-293 cells were transfected with this plasmid and a reporter plasmid harboring the luciferase gene driven by a GAL4 specific promoter. Compound was added at 1 μM concentration after 48 hrs of transfection and incubated overnight. Luciferase activity as a function of drug binding/activation capacity of PPARγ1 was measured using Packard Luclite kit (Packard, USA) in Packard Top Count (Ivan Sadowski, Brendan Bell, Peter Broag and Melvyn Hollis. Gene 1992, 118: 137-141; Guide to Eukaryotic Transfections with Cationic Lipid Reagents. Life Technologies, GIBCO BRL, USA).

hPPARα = biological target: T2, hPPARα (Homo sapiens, UniProt Q07869); experiment: Determination of hPPARα activity (GAL4 luciferase reporter transactivation); format: cell-based; conditions: compound at 50 μM; luciferase activity in transfected HEK-293 cells
T2 construct: expressed in transfected cells; host or cells: HEK-293
T2 sequence (Q07869 239-466 limits assumed): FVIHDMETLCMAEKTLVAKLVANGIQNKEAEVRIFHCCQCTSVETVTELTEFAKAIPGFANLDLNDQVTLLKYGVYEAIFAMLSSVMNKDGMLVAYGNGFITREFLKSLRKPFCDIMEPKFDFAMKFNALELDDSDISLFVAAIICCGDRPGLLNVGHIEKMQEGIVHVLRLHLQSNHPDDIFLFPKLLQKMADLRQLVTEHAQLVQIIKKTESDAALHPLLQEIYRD
Protocol: Ligand binding domain of hPPARα was fused to DNA binding domain of Yeast transcription factor GAL4 in eucaryotic expression vector. Using superfect (Qiagen, Germany) as transfecting reagent HEK-293 cells were transfected with this plasmid and a reporter plasmid harboring the luciferase gene driven by a GAL4 specific promoter. Compound was added at different concentrations after 42 hrs of transfection and incubated overnight. Luciferase activity as a function of compound binding/activation capacity of PPARα was measured using Packard Luclite kit (Packard, USA) in Top Count (Ivan Sadowski, Brendan Bell, Peter Broag and Melvyn Hollis. Gene 1992, 118: 137-141; Superfect Transfection Reagent Handbook. February 1997. Qiagen, Germany).

Swiss albino mice = experiment: Plasma triglyceride and total cholesterol lowering activity in Swiss albino mice and Guinea pigs; format: in vivo, mouse; conditions: 6 days
Protocol: Male Swiss albino mice (SAM) and male Guinea pigs were obtained from NIN and housed in DRF animal house. All these animals were maintained under 12 hour light and dark cycle at 25±1° C. Animals were given standard laboratory chow (NIN, Hyderabad, India) and water, ad libitum. SAM of 20-25 g body weight range and Guinea pigs of 500-700 g body weight range were used (Oliver, P., Plancke, M. O., Marzin, D., Clavey, V., Sauzieres, J and Fruchart, J. C. Effects of fenofibrate, gemfibrozil and nicotinic acid on plasma lipoprotein levels in normal and hyperlipidemic mice. Atherosclerosis. 1988. 70: 107-114).
The test compounds were administered orally to Swiss albino mice at 0.3 to 30 mg/kg/day dose for 6 days. Control mice were treated with vehicle (0.25% Carboxymethylcellulose; dose 10 ml/kg). The test compounds were administered orally to Guinea pigs at […] dose for 6 days. Control animals were treated with vehicle (0.25% Carboxymethylcellulose; dose 5 ml/kg).
The blood samples were collected in fed state 1 hour after drug administration on 0 and 6 day of treatment. The blood was collected from the retro-orbital sinus through heparinised capillary in EDTA containing tubes. After centrifugation, plasma sample was separated for triglyceride and total cholesterol (Wieland, O. Methods of Enzymatic analysis. Bergermeyer, H. O., Ed., 1963. 211-214; Trinder, P. Ann. Clin. Biochem 1969, 6: 24-27). Measurement of plasma triglyceride, total cholesterol and HDL were done using commercial kits (Dr. Reddy's Diagnostic Division, Hyderabad, India).
as §1

[1] = 3 mg/kg oral gavage daily for 6 days
[2] = 10 mg/kg oral gavage daily for 6 days

CCCc1nn(C)c2c(OCCOc3ccc(CC(OCC)C(=O)OCC)cc3)nc(C)nc12 (stereo in doubt) [Example 5, Ethyl 2(S)-3-[4-{2-1,5-dimethyl-3-propyl-1H-pyrazolo[4,3-dipyrimidin-7-yloxy)ethoxy}phenyl]-2-ethoxypropanoate]
Reduction in Blood Glucose Level (%) (C57BL/KsJ-db/db mice; [1]): 61% | Triglyceride Lowering (%) (C57BL/KsJ-db/db mice; [1]): 51%

CCCCCCCN(C(=O)COc1nc(CC)nc2c(CCC)nn(C)c12)c1ccc(SC(CCC)C(=O)O)cc1 (stereo not shown) [Example 2, 2-[4-(5-Ethyl-1-methyl-3-propyl-1H-pyrazolo[4,3-d]pyrimidin-7-yloxymethyl-(heptyl)carboxamido)phenylsulfanyl]pentanoic Acid]
PPARγ (hPPARγ1): 1.4 | PPARα (hPPARα): 2.7

CCCc1nn(C)c2c(OCCOc3ccc(C[C@H](OCC)C(=O)OC)cc3)nc(CC)nc12 [Example 4a, Methyl 2(S)-2-ethoxy-3-[4-{2-(5-ethyl-1-methyl-3-propyl-1H-pyrazolo [4,3-d]-pyrimidin-7-yloxy)ethoxy}phenyl]propanoate]
Reduction in Blood Glucose Level (%) (C57BL/KsJ-db/db mice; [2]): 48% | Triglyceride Lowering (%) (C57BL/KsJ-db/db mice; [2]): 69%

CCCc1nn(C)c2c(OCCOc3ccc(C[C@H](OCC)C(=O)O)cc3)nc(CC)nc12 [Example 4b, 2(S)-2-Ethoxy-3-[4-{2-(5-ethyl-1-methyl-3-propyl-1H-pyrazolo[4,3-d]pyrimidin-7-yloxy)ethoxy}phenyl]propanoic Acid]
PPARγ (hPPARγ1): 6.9 | PPARα (hPPARα): 5.1 | Reduction in Blood Glucose Level (%) (C57BL/KsJ-db/db mice; [2]): 56% | Triglyceride Lowering (%) (C57BL/KsJ-db/db mice; [2]): 17%

CCCc1nn(C)c2c(OCCOc3ccc(CC(OCC)C(=O)OCC)cc3)nc(-c3ccccc3)nc12 (stereo not shown) [Example 7, Ethyl 2-ethoxy-3-[4-{2-(1-methyl-5-phenyl-3-propyl-1H-pyrazolo-[4,3-d]-pyrimidin-7-yloxy)ethoxy}phenyl]propanoate]
Triglyceride Lowering (%) (Swiss albino mice; 3 mg/kg orally): 43%

CCCc1nn(C)c2c(OCCOc3ccc(CC(OCC)C(=O)O)cc3)nc(-c3ccccc3)nc12 (stereo not shown) [Example 8, 3-[4-{2-(1-Methyl-5-phenyl-3-propyl-1H-pyrazolo-14,3-d]pyrimidin-7-yloxy)ethoxy}phenyl-2-ethoxypropanoic Acid]
Triglyceride Lowering (%) (Swiss albino mice; 10 mg/kg orally): 61%

CCCc1nn(C)c2c(OCCOc3ccc(C[C@H](OCC)C(=O)O)cc3)nc(C3CC3)nc12 [Example 10, (2S)-3-[4-{2-(5-Cyclopropyl-1-methyl-3-propyl-1H-pyrazolo[4,3-d]pyrimidin-7-yloxy)ethoxy}phenyl]-2-ethoxypropanoic Acid]
Triglyceride Lowering (%) (Swiss albino mice; 3 mg/kg orally): 42%
